Where two headings read alike, the source gives them in different places. Marks after values point to notes of the source that are not given here.
How the values were obtained:
[1] = UV/visible absorption spectroscopy of Eu(III) complexes in TRIS buffer; format: physicochemical; details: TRIS buffer pH = 7.4
Description: Extinction Coefficient. A series of solutions of varied concentrations will be prepared from the solids based on mass and purity. The absorbance of each of these solutions at both 340 nm and at the appropriate acceptor wavelength will be measured and plotted according to Beer's Law (A=εcL where A is absorbance, ε is the extinction coefficient in M^−1 cm^−1, c is concentration, and L is path length in cm) with the fitted linear regression slope equal to […] on a plot of A as a function of C.
Each of the spectra have absorption maxima around 335-340 nm (FIG. 2). Those bands are composed of two electronic transitions; at higher energy, a purely π-π* transition and, at slightly lower energy (around ca. 320 nm), a π-π* transition with some n-π* character, as evidenced previously from TD-DFT calculations. […] This interaction gives maxima blue-shifting from 341 nm for [Eu(H(2,2)-1,2-HOPO)]^0 to 334 nm for [Eu(H(17O5,2)-1,2-HOPO)]^0 (as low as 332 nm for)[Eu(5LIN^Me-1,2HOPO)2]^0).

[2] = Luminescence quantum yield, emission and brightness in aqueous 0.1 M TRIS buffer; format: physicochemical; details: for øTot: 0.1M TRIS buffer pH = 7.4; for ϕTot: aqueous TRIS pH = 7.4, complexes with only one species; for Brightness: at maximum absorption, product of quantum yield and molar absorption coefficient, 0.1 M TRIS pH = 7.4
Experimental: Quantum Yield. Quantum yield will be measured using established methods. Fluorescence quantum yield Q are measured in diluted solution with an optical density lower than 0.1 using the following equation Qx/Qr=[Ar(λr)/Ax(λx)][nx^2/nr^2][Dx/Dr] were A is the absorbance at the excitation wavelength (λ), n the refractive index and D the integrated luminescence intensity. Subscripts “r” and “x” stand for reference and sample, respectively. References will be a quinine bisulfate in 1N sulfuric acid in aqueous solution (Qt=0.546)^1 and Ru(bpy)3 2C1 complexes in water solution (Qr=0.028)^2 for all complexes. A plot of integrated emission intensity (i.e. Dr) versus absorbance (i.e. Ar(λr)) yields a linear plot with a slope which can be equated to the reference quantum yield Qr. By analogy, for the unknown sample, a plot of integrated emission intensity (i.e. Dx) versus absorbance (i.e. Ax(λx)) yields a linear plot and Qx can then be evaluated. A minimum of at least two independent measurements will be averaged to derive a reliable value.

[3] = Triplet excited state energy from phosphorescence of Gd complexes at 77K; format: physicochemical; details: solid matrix (methanol/ethanol 1/4), using the Gd complexes
Experimental: Estimation of the energies of the ligand based triplet excited state were determined using the Gd(III) complexes. Gadolinium was chosen because it is a 4f^7 lanthanide cation having a similar 4f electronic configuration and size as the europium cation (4f^6), but lacking an accessible metal based low energy electronic excited state. At room temperature, only a broad weak emission centered between 380-400 nm can be seen for the Gd(III) complexes. […] At 77K, in solid matrix, an emission band at approx. 500 nm can be seen (FIG. 8). This emission, red-shifted compared to the singlet excited state, can be assigned to phosphorescence from the triplet excited state, lower in energy than the singlet excited state observed at room temperature. Selective time gated phosphorescence spectra (delay 0.1 ms) of the gadolinium complexes at 77K are depicted in FIG. 8.

[4] = Calculation of Eu luminescence parameters (radiative lifetime, rate constants, efficiencies); format: physicochemical; details: for η^Eu: efficiency of metal centred luminescence; for knr: non-radiative rate constant; for τrad: pure radiative luminescence lifetime, aqueous TRIS pH = 7.4; for kr: radiative rate constant; for η^sens: sensitization efficiency
Experimental: In this equation, the ηISC ηET term is termed the sensitization efficiency, ηsens (ηsens=ηISC ηET). All the luminescence parameters τR (the pure radiative luminescence lifetime), kR and knR (the radiative and non-radiative constant rate) can be deduced. These parameters were calculated for five of the octadentate complexes and the model complex that present only one species in solution at pH=7.4 and are reported in Table 6.

[5] = cited from earlier work; for λ: absorption maximum
[6] = cited from earlier work; for ϕEu: quantum yield
[7] = cited from earlier work; for τ (D2O): first component where two are printed; for τ (H2O): first (longer) component
[8] = cited from earlier work
[9] = Luminescence lifetimes (TRIS buffer, deuterated water, 77K) and inner sphere water number q; details: for τ: aqueous TRIS pH = 7.4; for τ^D: deuterated solution; for τ^D / τ (77K): first component; for q: inner sphere water molecules, improved Horrock's equations, first species; for τ (77K): solid matrix at 77K (methanol/ethanol 1/4)
Experimental: Fluorescent decay signals can be acquired using an IBH DataStation Hub photon counting module and data analysis performed using the commercially available DAS 6 decay analysis software package from HORIBA Jobin Yvon IBH. Goodness of fit will be assessed by minimizing the reduced chi squared function, χ2, and a visual inspection of the weighted residuals. Each trace will use at least 10,000 points and the reported lifetime values result from at least three independent measurements.
In addition to the steady state emission spectra, the luminescence quantum yields and luminescence lifetimes of the Eu(III) complexes were also measured in aqueous solution with 0.1 M TRIS buffer pH=7.4 and in deuterated solution to estimate the number of inner sphere water molecule (i.e. q) using the improved Horrock's equations.
Luminescence lifetimes were also determined at 77K, in a solid matrix (Table 5), which have allowed us to determine whether back energy transfer between the donor triplet excited state and the acceptor manifold excited state of the lanthanide is present, or alternately whether quenching via low lying LMCT state occurs.

[10] = listed as [Eu(H(2,2)-1,2-HOPO)]^0
[11] = listed as [Eu(H(2,2)-1,2HOPO)]^0
[12] = number of inner sphere water molecules, first species
[13] = competitive batch titration using DTPA in 0.1M TRIS pH = 7.4 and 0.1M KCl
[14] = listed as [Eu(5LIN^Me-1,2HOPO)2]^0
[15] = listed as [Eu(5LIN^Me-1,2-HOPO)2]

With `O=C(NCCN(CCCCN(CCNC(=O)c1cccc(=O)n1O)CCNC(=O)c1cccc(=O)n1O)CCNC(=O)c1cccc(=O)n1O)c1cccc(=O)n1O` [Eu(H2)] the “λ^maxabs” value [1, 10] was 341 nm, the ε [1, 11] was 18,200 M^−1 · cm^−1 and the “λ^maxabs” value [1, 11] was 341 nm. For the same compound, the øTot [2, 11] was 0.036, the ϕTot ([2]; listed as [Eu(H(22)-1,2-HOPO)]) was 0.036 and the Brightness [2, 10] was 655 M⁻¹ cm⁻¹. For the same compound, the Brightness [2, 11] was 655 M⁻¹ cm⁻¹, the “overall quantum yield (in words)” value ([2]; related to inner-sphere coordinated water) was “low quantum yields” and the “T0-0 (triplet excited state energy)” value [3, 11] was 21,980 cm^−1. The “η^Eu” value ([4]; listed as [Eu(H(22)-1,2-HOPO)]) was 0.160, the knr ([4]; listed as [Eu(H(22)-1,2-HOPO)]) was 1750 s⁻¹ and the τrad ([4]; listed as [Eu(H(22)-1,2-HOPO)]) was 3000 μs. The kr ([4]; listed as [Eu(H(22)-1,2-HOPO)]) was 333 s⁻¹, the “η^sens” value ([4]; listed as [Eu(H(22)-1,2-HOPO)]) was 0.225 and the λ [5] was 341 nm. The ε ([5]; extinction coefficient) was 18,200 M^1 cm^−1, the ϕEu [6] was 0.036 and the “τ (D2O)” value [7] was 1222 μs. For the same compound, the “τ (H2O)” value [7] was 480 μs, the q [7, 12] was 1.1 and the pEu [8, 13] was 21.2. The τ ([9]; listed as [Eu(H(22)-1,2-HOPO)]) was 480 μs, the “τ^D” value [9, 11] was 1222 μs and the q [9, 11] was 1.1. The “τ (77K)” value [9, 11] was 914 μs.

In the case of `O=C(NCCN(CCCCN(CCNC(=O)c1cccc(=O)n1O)CCNC(=O)c1cccc(=O)n1O)CCNC(=O)c1cccc(=O)n1O)c1cccc(=O)n1O` [Eu(5LiN^Me), reference compound], the ε [1, 14] is reported as 18,050 M^−1 · cm^−1, the “λ^maxabs” value [1, 14] is reported as 332 nm and the øTot [2, 14] is reported as 0.173^b. The ϕTot [2, 15] was 0.173, the Brightness ([2]; listed as [Eu(5LIN^Me-1,2-HOPO)2]^0) was 3400 M⁻¹ cm⁻¹ and the Brightness [2, 14] was 3120 M⁻¹ cm⁻¹. The “T0-0 (triplet excited state energy)” value [3, 14] was 22,010 cm^−1, the “η^Eu” value [4, 15] was 0.412 and the knr [4, 15] was 807 s⁻¹. For the same compound, the τrad [4, 15] was 1770 μs, the kr [4, 15] was 566 s⁻¹ and the “η^sens” value [4, 15] was 0.420. The λ [5] was 332 nm, the λ ([5]; see reference [47]) was 332 nm and the ε ([5]; extinction coefficient) was 18,750 M^1 cm^−1. For the same compound, the ε ([5]; see reference [47], in M-1·cm-1 (unit assumed)) was 18,750, the ϕEu [6] was 0.17 and the ϕTot ([6]; see reference [47]) was 0.17. The “τ (D2O)” value [7] was 1000 μs, the “τ (H2O)” value [7] was 728 μs and the q [7, 12] was 0.1. For the same compound, the q ([7]; see reference [47]) was 0.1, the τ ([7]; see reference [47]) was 728 μs and the “τ^D” value ([7]; see reference [47]) was 1000 μs. The pEu [8, 13] was 17.3, the pEu ([8]; see reference [47], DTPA competition, 0.1M TRIS pH = 7.4, 0.1M KCl) was 17.3 and the τ [9, 15] was 728 μs. For the same compound, the “τ^D” value [9, 14] was 1000^b μs, the q [9, 14] was 0.1^b and the “τ (77K)” value [9, 14] was 860 μs.

Reference: patent publication US10352938B2, “Macrocyclic HOPO chelators” (LUMIPHORE, INC., priority 2009, dated 2019)
